Literature values as cited in patent US7045166B2, “Sweetener compositions containing fractions of inulin” (priority 1998, dated 2006).

Assays:
[1] = relative to sucrose (sugar)
[2] = artificial sweetener, general statement

| heat stability [2] | Compound | sweetness of an equivalent dose of sucrose [1] |
| --- | --- | --- |
| – | COC(=O)[C@H](Cc1ccccc1)NC(=O)[C@H](CC(=O)O)NCCC(C)(C)C [Neotane] | 8000 times |
| heat stable | OC[C@H]1O[C@H](O[C@]2(CCl)O[C@H](CCl)[C@@H](O)[C@@H]2O)[C@H](O)[C@@H](O)[C@H]1Cl [Sucralose, sucralose] | 600 times |
